Experimental data as given in patent US8916599B2, “1H-benz imidazole-5-carboxamides as anti-inflammatory agents” (Orexo AB, priority 2008, dated 2014).

Molecular target: T1, recombinant human mPGES-1 (Homo sapiens, UniProt O14684)
T1 construct: made in house; host or cells: Rosetta E. coli (microsomal/membrane fraction)
T1 sequence (O14684 1-152): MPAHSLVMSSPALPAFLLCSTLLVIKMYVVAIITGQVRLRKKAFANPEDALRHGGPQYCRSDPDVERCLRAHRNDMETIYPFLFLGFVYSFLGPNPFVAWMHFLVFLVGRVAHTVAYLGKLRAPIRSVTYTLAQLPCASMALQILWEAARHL
Assay: mPGES-1 inhibition test (microsomes, PGH2 substrate, HTRF detection of PGE2)
Format: biochemical
Conditions: for inhibition at 1 µM: inhibition of mPGES-1 at 1 μM (marked in cell)
Procedure, shortened: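 Microsomes from E. coli expressing recombinant human mPGES-1 in 0.1 M KPi pH 7.4 with 2.5 mM GSH were preincubated with inhibitor 25 min at room temperature. PGH2 was then added, and the reaction was stopped after 1 min with acidified FeCl2. PGE2 was quantified by HTRF (665/620 nm ratio) against a synthetic PGE2 standard curve.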

| Molecule | inhibition at 10 µM (inhibition of mPGES-1 at 10 μM) [%] | other results |
| --- | --- | --- |
| Cn1c(Nc2c(Cl)cccc2Cl)nc2cc(C(=O)NC3CCCCC3)cc(Br)c21 [Example 326, 7-Bromo-2-(2,6-dichloro-phenylamino)-1-methyl-1H-benzimidazole-5-carboxylic acid cyclohexylamide] | 96 | – |
| Cc1cc(NC(=O)c2ccc3[nH]c(Nc4c(Cl)cccc4Cl)nc3c2)ncc1F [Example 189, 2-(2,6-Dichloro-phenylamino)-1H-benzimidazole-5-carboxylic acid (5-fluoro-4-methyl-pyridin-2-yl)-amide] | 94 | – |
| CNC(=O)c1ccc(Nc2nc3cc(C(=O)Nc4ccc(Br)cc4)ccc3n2C)c(Cl)c1 [Example 540, N-(4-Bromophenyl)-2-(2-chloro-4-(methylcarbamoyl)-phenylamino)-1-methyl-1H-benzimidazole-5-carboxamide] | 44 | – |
| CC(C)Oc1cc2c(cc1C(=O)NC1CCC(C)(C)CC1)nc(Nc1c(Cl)ccc(Cl)c1F)n2C [Example 625, 2-(3,6-Dichloro-2-fluoro-phenylamino)-6-isopropoxy-N-(4,4-dimethyl-cyclohex-1-yl)-1-methyl-1H-benzimidazole-5-carboxamide] | – | inhibition at 1 µM: 99% |
| O=C(Nc1cc(Cl)c(Cl)c(Cl)c1)c1ccc2[nH]c(Nc3c(Cl)cccc3Cl)nc2c1 [Example 287, 2-(2,6-Dichloro-phenylamino)-1H-benzimidazole-5-carboxylic acid (3,4,5-trichloro-phenyl)-amide] | 92 | – |
| O=C(Nc1c(Cl)cc(Cl)cc1Cl)c1ccc2[nH]c(Nc3c(Cl)cccc3Cl)nc2c1 [Example 313, 2-(2,6-Dichloro-phenylamino)-1H-benzimidazole-5-carboxylic acid (2,4,6-trichloro-phenyl)-amide] | 99 | – |
| Cn1c(Nc2c(F)cccc2F)nc2cc(C(=O)N[C@H]3CC[C@H](C(F)(F)F)CC3)ccc21 [Example 171, 2-(2,6-Difluoro-phenylamino)-1-methyl-1H-benzimidazole-5-carboxylic acid (trans-4-trifluoromethyl-cyclohexyl)-amide] | 94 | – |
| Cc1cc(C(=O)Nc2ccc(Cl)c(F)c2)cc2nc(Nc3c(Cl)cccc3Cl)[nH]c12 [Example 52, 2-(2,6-Dichloro-phenylamino)-7-methyl-1H-benzimidazole-5-carboxylic acid (4-chloro-3-fluoro-phenyl)-amide] | 100 | – |
| O=C(Nc1ccc(Cl)c(F)c1)c1cc2nc(Nc3c(Cl)cccc3Cl)[nH]c2cc1F [Example 124, 2-(2,6-Dichloro-phenylamino)-6-fluoro-1H-benzimidazol-5-carboxylic acid (4-chloro-3-fluoro-phenyl)-amide] | 98 | – |
| CC(C)CCNC(=O)c1cc2nc(Nc3c(Cl)cccc3Cl)n(C)c2cc1F [Example 428, 2-(2,6-Dichlorophenylamino)-6-fluoro-N-isopentyl-1-methyl-1H-benzimidazole-5-carboxamide] | 100 | – |
| Cc1cccc(Cl)c1Nc1nc2cc(C(=O)Nc3ccc(Br)cc3)ccc2n1C [Example 382, N-(4-Bromophenyl)-2-(2-chloro-6-methylphenylamino)-1-methyl-1H-benzimidazole-5-carboxamide] | 100 | – |
| CNCCCn1c(Nc2c(Cl)cccc2Cl)nc2cc(C(=O)Nc3cc(Cl)ccn3)ccc21 [Example 266, 2-(2,6-Dichloro-phenylamino)-1-(3-methylamino-propyl)-1H-benzimidazole-5-carboxylic acid (4-chloro-pyridin-2-yl)-amide] | 100 | – |
| Cc1cnc(CNC(=O)c2cc3nc(Nc4c(Cl)cccc4Cl)n(C)c3cc2F)c(C)c1 [Example 470, 2-(2,6-Dichlorophenylamino)-N-((3,5-dimethylpyridin-2-yl)methyl)-6-fluoro-1-methyl-1H-benzimidazole-5-carboxamide] | 100 | – |
| O=C(Nc1ccc(Br)cc1)c1ccc2[nH]c(Nc3c(F)cccc3Cl)nc2c1 [compound 334] | 100 | – |
| COc1cc2nc(Nc3c(Cl)cccc3Cl)[nH]c2cc1C(=O)Nc1ccc(Cl)c(F)c1 [Example 197] | 100 | – |
| Cn1c(Nc2c(Cl)cccc2Cl)nc2cc(C(=O)N[C@H]3CC[C@H](C(F)(F)F)CC3)c(F)cc21 [Example 158, 2-(2,6-Dichloro-phenylamino)-6-fluoro-1-methyl-1H-benzimidazole-5-carboxylic acid (trans-4-trifluoromethyl-cyclohexyl)-amide] | 100 | – |
| Cc1nc(NC(=O)c2cc3nc(Nc4c(Cl)cccc4Cl)[nH]c3cc2F)cc2c1CCCC2 [Example 138, 2-(2,6-Dichloro-phenylamino)-6-fluoro-1H-benzimidazole-5-carboxylic acid (1-methyl-5,6,7,8-tetrahydro-isoquinolin-3-yl)-amide] | 100 | – |

| Molecule | inhibition at 10 µM (inhibition of mPGES-1 at 10 μM) [%] | other results |
| --- | --- | --- |
| O=C(NC1CCCCC1)c1ccc2nc(Nc3c(Cl)cccc3Cl)[nH]c2c1 [Example 137, 2-(2,6-Dichloro-phenylamino)-3H-benzimidazole-5-carboxylic acid cyclohexylamide] | 100 | – |
| O=C(N[C@H]1CC[C@H](C(F)(F)F)CC1)c1cc2nc(Nc3c(Cl)cccc3Cl)[nH]c2cc1F [Example 155, 2-(2,6-Dichloro-phenylamino)-6-fluoro-1H-benzimidazole-5-carboxylic acid (trans-4-trifluoromethyl-cyclohexyl)-amide] | 100 | – |
| Cn1c(Nc2c(Cl)cccc2Cl)nc2cc(C(=O)Nc3cc(N4CCCCC4)ccn3)c(F)cc21 [Example 533, 2-(2,6-Dichlorophenylamino)-6-fluoro-1-methyl-N-(4-(piperidin-1-yl)-pyridin-2-yl)-1H-benzimidazole-5-carboxamide] | 91 | – |
| Cn1c(Nc2c(Cl)cccc2Cl)nc2cc(C(=O)Nc3ccc(Cl)cn3)ccc21 [Example 494, N-(5-Chloropyridin-2-yl)-2-(2,6-dichlorophenylamino)-1-methyl-1H-benzimidazole-5-carboxamide] | 99 | – |
| Cn1c(Nc2c(Cl)cccc2Cl)nc2cc(C(=O)Nc3cc(C(C)(C)C)ccn3)ccc21 [Example 464, N-(4-tert.-Butylpyridin-2-yl)-2-(2,6-dichlorophenylamino)-1-methyl-1H-benzimidazole-5-carboxamide] | 99 | – |
| COc1cc2c(cc1C(=O)NCc1ncccc1Cl)nc(Nc1c(Cl)cccc1Cl)n2C [Example 631] | 100 | – |
| Cn1c(Nc2c(Cl)cccc2Cl)nc2cc(C(=O)NCc3cnccc3C(F)(F)F)c(F)cc21 [Example 126, 2-(2,6-Dichloro-phenylamino)-6-fluoro-1-methyl-1H-benzimidazole-5-carboxylic acid (4-trifluoromethyl-pyridin-3-ylmethyl)-amide] | 92 | – |
| CCOc1cc2[nH]c(Nc3c(Cl)ccc(Cl)c3F)nc2cc1C(=O)NC1CCC(C)(C)CC1 [Example 600, 2-(3,6-Dichloro-2-fluoro-phenylamino)-N-(4,4-dimethyl-cyclohexyl)-6-ethoxy-1H-benzimidazole-5-carboxamide] | 94 | – |
| 2-(2-Chloro-6-fluorophenylamino-N-(4-isopropylcyclohexyl)-6-fluoro-1-methyl-1H-benzimidazole-5-carboxamide [Example 363] | – | % inhib. (inhibition of mPGES-1 at 10 μM): 100% |
| O=C(Nc1cc(Br)ccn1)c1ccc2[nH]c(Nc3c(Cl)cccc3Cl)nc2c1 [Example 184, 2-(2,6-Dichloro-phenylamino)-1H-benzimidazole-5-carboxylic acid (4-bromo-pyridin-2-yl)-amide] | 98 | – |
| COc1cc2[nH]c(Nc3c(Cl)cccc3Cl)nc2cc1C(=O)N[C@H]1CC[C@H](C(F)(F)F)CC1 [Example 376, 2-(2,6-Dichlorophenylamino)-6-methoxy-N-((1r,4r)-4-trifluoromethyl-cyclohexyl)-1H-benzimidazole-5-carboxamide] | 100 | – |
| O=C(Nc1ccc(Br)cc1)c1cc2[nH]c(Nc3c(Cl)cccc3Cl)nc2cc1F [Example 144, 2-(2,6-Dichloro-phenylamino)-6-fluoro-3H-benzimidazole-5-carboxylic acid (4-bromo-phenyl)-amide] | 97 | – |
| COCCn1c(Nc2c(Cl)cccc2Cl)nc2cc(C(=O)Nc3cc(Cl)ccn3)ccc21 [Example 272, 2-(2,6-Dichloro-phenylamino)-1-(2-methoxy-ethyl)-1H-benzimidazole-5-carboxylic acid (4-chloro-pyridin-2-yl)-amide] | 90 | – |
| CNC(=O)c1ccc(Cl)c(Nc2nc3cc(C(=O)Nc4ccc(Br)cc4)ccc3n2C)c1 [Example 574, N-(4-Bromophenyl)-2-(2-chloro-5-(methylcarbamoyl)-phenylamino)-1-methyl-1H-benzimidazole-5-carboxamide] | 56 | – |
| COc1cc2c(cc1C(=O)Nc1ccc(Br)cc1)nc(Nc1cc(F)ccc1C(F)(F)F)n2C [Example 642, 2-(5-Fluoro-2-trifluoromethyl-phenylamino)-N-(4-bromphenyl)-6-methoxy-1-methyl-1H-benzimidazol-5-carboxamide] | – | inhibition at 1 µM: 100% |
| COc1cc2c(cc1C(=O)N[C@H]1CC[C@H](C(F)(F)F)CC1)nc(Nc1c(Cl)ccc(Cl)c1F)n2C [Example 643, 2-(3,6-Dichloro-2-fluoro-phenylamino)-6-methoxy-N-(trans-4-trifluoromethyl-cyclohex-1-yl)-1-methyl-1H-benzimidazole-5-carboxamide] | – | inhibition at 1 µM: 100% |
| Cc1cc(NC(=O)c2cc3nc(Nc4c(Cl)cc(F)cc4Cl)[nH]c3cc2OCC(F)(F)F)nc(C(F)(F)F)c1 [compound 576] | 96 | – |
